Experimental data taken from publication PMC12736120, “First-in-Human Phase I Clinical Trial of SLC-391, a Novel and Selective AXL Inhibitor, in Patients with Advanced Solid Tumours” (Pharmaceuticals, 2025).

System: advanced solid tumours
Assay: Preliminary efficacy, disease assessment by RECIST 1.1 / mRECIST
Assay type: in vivo, human
Settings: for best percent change in target lesion diameter (decrease): one subject
Protocol: Disease assessments were performed according to RECIST 1.1 [20, 21] and included imaging and physical examination as appropriate for disease type and location. Disease assessments were completed at screening (within 30 days of C1D1) and every 3 cycles (±7 days) relative to C1D1 until objective disease progression, study drug discontinuation, or withdrawal of informed consent.

## Nc1ncc(-c2cnn(C3CCNCC3)c2)cc1-c1nnc(CC2CC2)o1 [SLC-391, 3-(5-[cyclopropylmethyl]-1,3,4-oxadiazol-2-yl)-5-(1-[piperidin-4-yl]-1H-pyrazol-4-yl)-pyridin-2-amine]
150 mg BID (3/6)
  rate of stable disease: 50.0%
NSCLC
  best overall response (BOR) of stable disease: 4/16
RECIST 1.1 or modified RECIST (mesothelioma)
  subjects with stable disease: 12 of 35 subjects
All subjects (N = 35), monotherapy
  clinical benefit rate: 34.3%
Appendix adenocarcinoma
  best overall response (BOR) of stable disease: 1/1
Head and neck cancer
  best overall response (BOR) of stable disease: 1/1
Mammary adenocarcinoma
  best overall response (BOR) of stable disease: 1/1
melanoma
  best overall response (BOR) of stable disease: 1/1
mesothelioma
  best overall response (BOR) of stable disease: 4/4
monotherapy
  longest duration of stable disease: 318 days
monotherapy, all stage IV, pretreated
  patients with stable disease for more than half a year: six
50 mg QD, at cycle 7
  best percent change in target lesion diameter (decrease): 26.7%
110 mg BID, on day 275
  best percent change in target lesion diameter (decrease): 22.2%
150 mg BID, at the end of treatment visit
  best percent change in target lesion diameter (decrease): 8.9%
150 mg QD, at cycle 7
  best percent change in target lesion diameter (decrease): 10.7%
